O=C(O)c1cc([N+](=O)[O-])cc([N+](=O)[O-])c1O
solubility (mole fraction)
Settings | 278.15 K | 283.15 K | 288.15 K | 293.15 K | 298.15 K | 303.15 K | 308.15 K | 313.15 K | 318.15 K | 323.15 K
in 1,4-dioxane | – | – | 0.044 | 0.0495 | 0.0554 | 0.0622 | 0.0695 | 0.0778 | 0.0877 | 0.0994
in DMF | 0.0853 | 0.0951 | 0.107 | 0.119 | 0.135 | 0.152 | 0.171 | 0.19 | 0.214 | 0.241
in DMSO | – | – | – | 0.0749 | 0.0869 | 0.0999 | 0.114 | 0.13 | 0.149 | 0.172
in NMP | 0.0924 | 0.103 | 0.116 | 0.13 | 0.146 | 0.166 | 0.185 | 0.207 | 0.234 | 0.264
in acetonitrile | 0.0108 | 0.0125 | 0.0149 | 0.0177 | 0.0209 | 0.0248 | 0.029 | 0.0349 | 0.0411 | 0.0485
in cyclohexane | – | 0.00292 | 0.0036 | 0.00449 | 0.00558 | 0.00686 | 0.00836 | 0.0104 | 0.0128 | 0.0156
in ethanol | 0.0465 | 0.0518 | 0.0582 | 0.0659 | 0.0756 | 0.0862 | 0.0977 | 0.11 | 0.124 | 0.14
in ethyl acetate | 0.046 | 0.0501 | 0.0554 | 0.0619 | 0.0687 | 0.0771 | 0.0858 | 0.0966 | 0.109 | 0.122
in ethylene glycol | 0.0245 | 0.0277 | 0.0316 | 0.0365 | 0.0415 | 0.0476 | 0.054 | 0.062 | 0.0709 | 0.082
in isobutanol | 0.0139 | 0.0161 | 0.0198 | 0.0244 | 0.0295 | 0.0358 | 0.0439 | 0.0506 | 0.0589 | 0.0712
in isopropanol | 0.0262 | 0.03 | 0.0348 | 0.0402 | 0.0463 | 0.053 | 0.0608 | 0.0702 | 0.0808 | 0.0944
in n-butanol | 0.0116 | 0.0141 | 0.0172 | 0.0199 | 0.024 | 0.0301 | 0.0345 | 0.0424 | 0.049 | 0.0592
in n-propanol | 0.0364 | 0.0403 | 0.0456 | 0.0521 | 0.0597 | 0.068 | 0.0769 | 0.0866 | 0.0972 | 0.111
in water | 0.000646 | 0.000779 | 0.000964 | 0.0012 | 0.00145 | 0.00171 | 0.00198 | 0.00245 | 0.00301 | 0.00381
